From patent US20260209189A1, “ISOXAZOLINE-SUBSTITUTED BENZAMIDE COMPOUND AND APPLICATION THEREOF” (priority 2022, published 2026)
Read-outs that look alike come from different tables or passages of the source.

Key:
Format in all cases: in vivo
Tetranychus urticae = experiment: Insecticidal activity assay, peanut leaf dip, adult mite; details: 48 h
Protocol: (§1) The compound of the present invention was dissolved in acetone, and then diluted with water into liquids with gradients of different concentrations (ppm). Corn leaves were soaked in liquids of different concentrations for about 20 seconds, air-dried and then placed in petri dishes where 3rd instar Spodoptera frugiperda were placed, respectively; kale leaves were soaked in liquids of different concentrations for about 20 seconds, air-dried and then placed in petri dishes where 3rd instar Spodoptera frugiperda were placed, respectively; peanut leaves were soaked in liquids of different concentrations for about 20 seconds, air-dried and then placed in petri dishes where Tetranychus urticae (adult mite) and Aphis craccivora (adult aphid) were placed, respectively; water bamboo leaves were soaked in liquids of different concentrations for about 20 seconds, air-dried and then placed in petri dishes where 4th instar Chilo suppressalis were placed, respectively. Each petri dish was placed with 10 insects, covered and then stored at 25° C. in a constant temperature room. The number of dead insects were checked after 48 h. The dead insect rate was calculated by the formula: Death rate (%)=(Number of dead insects/Number of test insects)×100. Furthermore, the experiment was conducted in two replications.

Spodoptera frugiperda [1] = experiment: Assay of insecticidal activity of compositions (synergism), 3rd instar; details: for pest or weed control at 50 µg/mL: B 50 ppm; for pest or weed control at 1 µg/mL: B 1 ppm
Protocol: as §1
• Test targets: Spodoptera frugiperda (3rd instar) and Aphis gossypii (adult aphid) […]
(§2) Different ratios within the selected ratio range were set for toxicity determination, and the optimal ratio was selected according to synergistic effects. When the synergistic effect >0, it indicated a synergistic effect; when the synergistic effect is close to 0, it indicated an addition effect; when the synergistic effect <0, it indicated an antagonistic effect.
(§3) [formula] • wherein, P1, P2—Death rate by each individual agent in a mixed formulation.

Aphis gossypii = experiment: Assay of insecticidal activity of compositions (synergism), zucchini leaves, adult aphid; details: for pest or weed control at 5 µg/mL / pest or weed control at 1 µg/mL: in Cucurbita pepo, 48 h, read-out: Death rate by individual B; for pest or weed control at 5 µg/mL: B 5 ppm
Protocol: as §1
• Test targets: Spodoptera frugiperda (3rd instar) and Aphis gossypii (adult aphid)
Referring to the above-mentioned Insecticidal activity assay, when the test target was Aphis gossypii, the zucchini leaves were selected.
as §2, §3

Spodoptera frugiperda [2] = experiment: Insecticidal activity assay, corn leaf dip, 3rd instar larvae; details: liquid concentration 0.3 ppm, 48 h
Protocol: as §1

Spodoptera exigua = experiment: Insecticidal activity assay, kale leaf dip, 3rd instar larvae; details: liquid concentration 0.3 ppm, 48 h
Aphis craccivora = experiment: Insecticidal activity assay, peanut leaf dip, adult aphid; details: liquid concentration 8.1 ppm, 48 h
Protocol: as §1

[3] = 48 h, B 2 ppm, read-out: Death rate by individual B
[4] = 48 h, read-out: Death rate by individual B

Cc1cc(C2=NOC(c3cc(Cl)c(Cl)c(C(F)(F)F)c3)(C(F)(F)F)C2)ccc1C(=O)N[C@H](C)C(=O)O (stereo partly drawn) [Compound 151 (2R)]
Death rate (Tetranychus urticae; liquid concentration 8.1 ppm): 100%

CCOC(=O)OC1=C(c2cc(C)ccc2C)C(=O)N[C@]12CC[C@@H](OC)CC2 [Spirotetramat, reference compound]
pest or weed control at 100 µg/mL (Spodoptera frugiperda [1]; 48 h, B 100 ppm, read-out: Death rate by individual B): 47%

C[C@]1(COC(=O)C2CC2)[C@@H]2C[C@H](O)[C@@]3(C)Oc4cc(-c5cccnc5)oc(=O)c4[C@H](O)[C@@H]3[C@@]2(C)CC[C@@H]1OC(=O)C1CC1 [Afidopyropen, reference compound]
Death rate by individual B (Aphis gossypii; B 1 ppm): 68%

CN/C(=N/CC1CCOC1)N[N+](=O)[O-] (stereo not shown) [Dinotefuran, reference compound]
pest or weed control at 5 µg/mL (Aphis gossypii): 40%

Spinetoram [reference compound]
Death rate by individual B (Spodoptera frugiperda [1]; B 0.5 ppm): 62%

COC(=O)C(C)NC(=O)c1ccc(C2=NOC(c3cc(F)c(F)c(C(F)(F)F)c3)(C(F)(F)F)C2)cc1C (mixture of isomers) [181 (2R)]
Death rate (Tetranychus urticae; liquid concentration 8.1 ppm): 70%

COc1cccc(C(=O)NN(C(=O)c2cc(C)cc(C)c2)C(C)(C)C)c1C [Methoxyfenozide, reference compound]
pest or weed control at 2 µg/mL (Spodoptera frugiperda [1]; [3]): 31%

COC(=O)[C@@H](C)N(C)C(=O)c1ccc(C2=NOC(c3cc(Cl)c(Cl)c(C(F)(F)F)c3)(C(F)(F)F)C2)cc1C (stereo partly drawn) [Compound 4 (2R)]
Death rate (Spodoptera frugiperda [2]): 100%

O=[N+]([O-])NC1=NCCN1Cc1ccc(Cl)nc1 [Imidacloprid, reference compound]
pest or weed control at 1 µg/mL (Aphis gossypii; B 1 ppm): 53%

Cc1cc(C)c(C2=C(OC(=O)CC(C)(C)C)C3(CCCC3)OC2=O)c(C)c1 [Spiromesifen, reference compound]
Death rate by individual B (Spodoptera frugiperda [1]; B 100 ppm): 49%

Cc1cc(C2=NOC(c3cc(Cl)c(Cl)c(C(F)(F)F)c3)(C(F)(F)F)C2)ccc1C(=O)NC(C)C(=O)O [Compound 151 (5S, 2R)]
Death rate (Tetranychus urticae; liquid concentration 8.1 ppm): 100%

CNC(=O)c1cc(Cl)cc(C)c1NC(=O)c1cc(Br)nn1-c1ncccc1Cl [Chlorantraniliprole, reference compound]
pest or weed control at 0.5 µg/mL (Spodoptera frugiperda [1]; 48 h, B 0.5 ppm, read-out: Death rate by individual B): 50%

COC(=O)C(C)NC(=O)c1ccc(C2=NOC(c3cc(Cl)c(SC)c(C(F)(F)F)c3)(C(F)(F)F)C2)cc1C (mixture of isomers) [187 (2R)]
Death rate (Tetranychus urticae; liquid concentration 8.1 ppm): 63%

C/C(=N\C#N)N(C)Cc1ccc(Cl)nc1 [Acetamiprid, reference compound]
pest or weed control at 1 µg/mL (Aphis gossypii; B 1 ppm): 52%

CN1COCN(Cc2cnc(Cl)s2)/C1=N\[N+](=O)[O-] [Thiamethoxam, reference compound]
pest or weed control at 1 µg/mL (Aphis gossypii; B 1 ppm): 64%

CN/C(=N\[N+](=O)[O-])NCc1cnc(Cl)s1 [Clothianidin, reference compound]
pest or weed control at 5 µg/mL (Aphis gossypii): 42%

CCc1nn(C)c(C(=O)NCc2ccc(Oc3ccc(C)cc3)cc2)c1Cl [Tolfenpyrad, reference compound]
pest or weed control at 1 µg/mL (Aphis gossypii; B 1 ppm): 35%

COC(=O)C(CC(N)=O)NC(=O)c1ccc(C2=NOC(c3cc(Cl)c(Cl)c(C(F)(F)F)c3)(C(F)(F)F)C2)cc1C (mixture of isomers) [179 (2R)]
Death rate (Tetranychus urticae; liquid concentration 8.1 ppm): 80%

CC[S+]([O-])c1c(C#N)nn(-c2c(Cl)cc(C(F)(F)F)cc2Cl)c1N (stereo not shown) [Ethiprole, reference compound]
pest or weed control at 5 µg/mL (Aphis gossypii): 33%

C#CCOC(=O)C(C)NC(=O)c1ccc(C2=NOC(c3cc(Cl)c(Cl)c(C(F)(F)F)c3)(C(F)(F)F)C2)cc1C (mixture of isomers) [43 (2R)]
Death rate (Tetranychus urticae; liquid concentration 0.9 ppm): 85%

CCOCn1c(-c2ccc(Cl)cc2)c(C#N)c(Br)c1C(F)(F)F [Chlorfenapyr, reference compound]
pest or weed control at 50 µg/mL (Spodoptera frugiperda [1]; [4]): 59%

Cc1cc(C2=NOC(c3cc(Cl)c(Cl)c(C(F)(F)F)c3)(C(F)(F)F)C2)ccc1C(=O)NC(C)C(=O)OCCO (mixture of isomers) [57 (2R)]
Death rate (Tetranychus urticae; liquid concentration 8.1 ppm): 90%

CNC(=O)c1cc(C#N)cc(C)c1NC(=O)c1cc(Br)nn1-c1ncccc1Cl [Cyantraniliprole, reference compound]
pest or weed control at 5 µg/mL (Aphis gossypii): 36%

COC(=O)C(C)NC(=O)c1ccc(C2=NOC(c3cc(Cl)c(Cl)c(C(F)(F)F)c3)(C(F)(F)F)C2)cc1C(C)C (mixture of isomers) [141 (2R)]
Death rate (Spodoptera frugiperda [2]): 90%

COC(=O)C(C)NC(=O)c1ccc(C2=NOC(c3cc(Cl)c(OC)c(C(F)(F)F)c3)(C(F)(F)F)C2)cc1C [Compound 183 (5S, 2R)]
Death rate (Tetranychus urticae; liquid concentration 8.1 ppm): 70%

CC1=NNC(=O)N(/N=C/c2cccnc2)C1 [Pymetrozine, reference compound]
pest or weed control at 50 µg/mL (Spodoptera frugiperda [1]; [4]): 30%

CCn1nc(C)cc1/C(OC(=O)C(C)(C)C)=C(/C#N)c1ccc(C(C)(C)C)cc1 [Cyetpyrafen, reference compound]
Death rate by individual B (Spodoptera frugiperda [1]; B 100 ppm): 30%

COC(=O)C(C)NC(=O)c1ccc(C2=NOC(c3cc(Cl)c(OC)c(C(F)(F)F)c3)(C(F)(F)F)C2)cc1C (mixture of isomers) [183 (2R)]
Death rate (Spodoptera frugiperda [2]): 100%
Death rate (Spodoptera exigua): 100%

Cc1c(COC(=O)[C@@H]2[C@H](/C=C(\Cl)C(F)(F)F)C2(C)C)cccc1-c1ccccc1 (racemic) [Bifenthrin, reference compound]
pest or weed control at 1 µg/mL (Spodoptera frugiperda [1]; [4]): 22%

CCN(C(=O)c1cnn(C(C)C(C)C)c1C)c1ccnnc1 (stereo not shown) [dimpropyridaz, Dimpropyridaz, reference compound]
Death rate by individual B (Aphis gossypii; B 2 ppm): 48%

Emamectin-benzoate [reference compound]
Death rate by individual B (Spodoptera frugiperda [1]; B 2 ppm): 37%

O=c1c(-c2cccc(C(F)(F)F)c2)c([O-])[n+](Cc2cncnc2)c2ccccn12 [Triflumezopyrim, reference compound]
Death rate by individual B (Spodoptera frugiperda [1]; B 100 ppm): 33%

COC(=O)C(NC(=O)c1ccc(C2=NOC(c3cc(Cl)c(Cl)c(C(F)(F)F)c3)(C(F)(F)F)C2)cc1C)C1CC1 (stereo not shown) [Compound 118]
Death rate (Spodoptera exigua): 60%
Death rate (Aphis craccivora): 40%

CCOC(=O)OC1=C(c2c(C)cc(Cl)cc2C)C(=O)N(C)C12CCN(OC)CC2 [Spiropidion, reference compound]
Death rate by individual B (Spodoptera frugiperda [1]; B 2 ppm): 39%

COC(=O)C(CCSC)NC(=O)c1ccc(C2=NOC(c3cc(Cl)c(Cl)c(C(F)(F)F)c3)(C(F)(F)F)C2)cc1C (mixture of isomers) [180 (2R)]
Death rate (Tetranychus urticae; liquid concentration 8.1 ppm): 45%

CC(C)N1C(=O)N(c2ccccc2)CS/C1=N\C(C)(C)C [Buprofezin, reference compound]
pest or weed control at 10 µg/mL (Spodoptera frugiperda [1]; 48 h, B 10 ppm, read-out: Death rate by individual B): 36%

CC1(C)[C@H](C(=O)O[C@H](C#N)c2cccc(Oc3ccccc3)c2)[C@@H]1/C=C(\Cl)C(F)(F)F (racemic) [lambda-cyhalothrin, lambda-Cyhalothrin, reference compound]
pest or weed control at 2 µg/mL (Spodoptera frugiperda [1]; [3]): 41%

COC(=O)C(NC(=O)c1ccc(C2=NOC(c3cc(Cl)c(Cl)c(C(F)(F)F)c3)(C(F)(F)F)C2)cc1C)C(C)C (stereo not shown) [Compound 111]
Death rate (Spodoptera exigua): 60%
Death rate (Aphis craccivora): 40%

CCN(Cc1ccc(Cl)nc1)/C(=C/[N+](=O)[O-])NC [Nitenpyram, reference compound]
pest or weed control at 1 µg/mL (Aphis gossypii; B 1 ppm): 36%

C=CCOC(=O)C(C)NC(=O)c1ccc(C2=NOC(c3cc(Cl)c(Cl)c(C(F)(F)F)c3)(C(F)(F)F)C2)cc1C (mixture of isomers) [41 (2R)]
Death rate (Tetranychus urticae; liquid concentration 0.9 ppm): 75%

CC(C)c1cc(Oc2ccccc2)cc(C(C)C)c1NC(=S)NC(C)(C)C [Diafenthiuron, reference compound]
pest or weed control at 100 µg/mL (Spodoptera frugiperda [1]; [4]): 49%

COC(=O)C(Cc1ccccc1)NC(=O)c1ccc(C2=NOC(c3cc(Cl)c(Cl)c(C(F)(F)F)c3)(C(F)(F)F)C2)cc1C (mixture of isomers) [131 (2R)]
Death rate (Tetranychus urticae; liquid concentration 8.1 ppm): 80%

N#Cc1nn(-c2c(Cl)cc(C(F)(F)F)cc2Cl)c(N)c1[S+]([O-])C(F)(F)F (stereo not shown) [Fipronil, reference compound]
pest or weed control at 1 µg/mL (Spodoptera frugiperda [1]; [4]): 43%

COP(=O)(NC(C)=O)SC (stereo not shown) [Acephate, reference compound]
pest or weed control at 300 µg/mL (Spodoptera frugiperda [1]; [4]): 38%

COC(=O)C(NC(=O)c1ccc(C2=NOC(c3cc(Cl)c(Cl)c(C(F)(F)F)c3)(C(F)(F)F)C2)cc1C)OC (stereo not shown) [Compound 124]
Death rate (Spodoptera frugiperda [2]): 80%
Death rate (Spodoptera exigua): 70%
Death rate (Tetranychus urticae; liquid concentration 8.1 ppm): 77%

O=C(NC(=O)c1c(F)cccc1F)Nc1cc(Cl)c(OC(F)(F)C(F)C(F)(F)F)cc1Cl (stereo not shown) [Lufenuron, reference compound]
pest or weed control at 50 µg/mL (Spodoptera frugiperda [1]; [4]): 38%

COC(=O)N(C(=O)N1CO[C@@]2(C(=O)OC)Cc3cc(Cl)ccc3C2=N1)c1ccc(OC(F)(F)F)cc1 [Indoxacarb, reference compound]
Death rate by individual B (Spodoptera frugiperda [1]; B 0.5 ppm): 36%

CCOC(=O)[C@@H](C)NC(=O)c1ccc(C2=NOC(c3cc(Cl)c(Cl)c(C(F)(F)F)c3)(C(F)(F)F)C2)cc1C (stereo partly drawn) [Compound 30 (2R)]
Death rate (Spodoptera frugiperda [2]): 90%
Death rate (Tetranychus urticae; liquid concentration 0.9 ppm): 80%

Abamectin [reference compound]
Death rate by individual B (Spodoptera frugiperda [1]; B 100 ppm): 25%
